Entries after “also recorded” stand apart in the source; their conditions may differ.
System: serum uric acid levels
Assay: Phase 1 open-label multiple dosing study, serum uric acid in healthy adult subjects
Assay type: in vivo, human
Details: 2000 mg BID oral 10 days; for uric acid, Mean: N=8
Procedure: A Phase 1 single site, open-label multiple dosing study evaluating a scyllo-inositol formulation was conducted in healthy adult subjects. Approximately 8 healthy male subjects received 2000 mg of scyllo-inositol twice daily (4-500 mg tablets orally administered twice a day) for 10 days. Blood samples were collected 12 hours prior to the first dose (day 0) and on days 6, 14, and 21. Scyllo-inositol 500 mg capsules were BSE/TSE-free soft gelatin, white, opaque capsules and no excipients were used in the finished product. Capsules were supplied in 60-mL, oblong, white pharmaceutical high density polyethylene (HDPE) bottles with white caps. Each 60-mL bottle contained 30 capsules of 500 mg strength scyllo-inositol.

[1] = Baseline (Day 0, before first dose)

O[C@H]1[C@H](O)[C@@H](O)[C@H](O)[C@@H](O)[C@@H]1O [scyllo-inositol, 1,2,3,4,5,6-cyclohexanehexyl, (1alpha,2beta,3alpha,4beta,5alpha,6beta)]
uric acid, Max [1]: 375 micromole per liter | uric acid, Median [1]: 300.4 micromole per liter | uric acid, Min [1]: 256 micromole per liter | uric acid, Mean [1]: 305.6 micromole per liter | uric acid, Max (Day 6): 250 micromole per liter | uric acid, Max Change from Baseline (Day 6): −12 micromole per liter | uric acid, Mean Change from Baseline (Day 6): −88.8 micromole per liter | uric acid, Median (Day 6): 226.0 micromole per liter | uric acid, Median Change from Baseline (Day 6): −72.6 micromole per liter | uric acid, Min (Day 6): 155 micromole per liter | uric acid, Min Change from Baseline (Day 6): −172 micromole per liter | uric acid, Mean (Day 6): 216.8 micromole per liter | uric acid, Max (Day 14): 274 micromole per liter | uric acid, Max Change from Baseline (Day 14): −12 micromole per liter | uric acid, Mean Change from Baseline (Day 14): −70.6 micromole per liter | uric acid, Median (Day 14): 237.9 micromole per liter | uric acid, Median Change from Baseline (Day 14): −74.4 micromole per liter | uric acid, Min (Day 14): 196 micromole per liter | uric acid, Min Change from Baseline (Day 14): −131 micromole per liter | uric acid, Mean (Day 14): 243.9 micromole per liter | uric acid, Max (Day 21): 333 micromole per liter | uric acid, Max Change from Baseline (Day 21): 65 micromole per liter | uric acid, Mean Change from Baseline (Day 21): −16.4 micromole per liter | uric acid, Median (Day 21): 291.5 micromole per liter | uric acid, Median Change from Baseline (Day 21): −23.8 micromole per liter | uric acid, Min (Day 21): 250 micromole per liter | uric acid, Min Change from Baseline (Day 21): −83 micromole per liter | uric acid after the end of treatment (Day 21, last follow-up visit): returned to Day 0 values by Day 21 | uric acid, Mean (Day 21): 289.2 micromole per liter | serum uric acid levels following the start of treatment (all 8 subjects): decreased in all subjects; also recorded: a decrease in serum uric acid levels was observed in all subjects | mean uric acid levels versus normal range (during the study): remained within the normal range

From patent US8748496B2, “Methods of treatment of hyperuricemia and associated disease states” (Elan Pharmaceuticals, Inc., priority 2008, dated 2014)
